Assays:
[1] = Copper-mediated oxidation of Trolox (Fenton system, EPR)
Procedure: The one-electron oxidation of Trolox results in the formation of a phenoxyl radical that is readily detected by EPR. All EPR measurements were done in using a Bruker ER-200 X-band EPR spectrometer. Samples (50 μL) in capillary tubes (0.5 mm i.d.) were examined at room temperature.

[2] = Ascorbyl radical kinetics (EPR), iron-catalyzed ascorbic oxidation; conditions: for relative amplitude of the ascorbyl radical signal: iron solution 0.9 mM, ascorbic acid 4.04 mM, HEPES pH 7.2
Procedure: Samples of iron(II) sulfate, iron(II) bis-glycinate (FeAAC), and an iron(II) bis-glycinate inulin complex (FeAAC/OF; ratio 1:10 w/w) were analyzed using EPR spectroscopy to determine their ability to generate the ascorbate radical, i.e. to catalyze ascorbic oxidation. The samples were dissolved in 10 mM HEPES buffer (pH 7.2) to a final concentration 0.9 mM of iron.
The iron solutions were mixed with the ascorbic acid solution, and the mixture was transferred into capillary tubes for measurement. Multiple readings were performed over 30 minutes.
EPR measurements were performed in 50 μL capillary tubes at room temperature using a Bruker ER-200 X-band EPR spectrometer.
The relative amplitudes of the ascorbyl radical signal, which can be correlated to the concentration of ascorbyl radical present in the solution, were measured (Table 2).

[3] = Hydroxyl radical formation (EPR, DMPO spin trapping); conditions: metal 800 μM, DMPO 18.7 mM, H2O2 61 mM, HEPES pH 7.2; relative to AAC
Procedure: The rate of hydroxyl radical formation catalyzed by a complex comprising an iron- or copper-amino acid inulin complex was compared to the iron- or copper-amino acid compound alone.
Mineral (Cu or Fe) was dissolved in 10 mM HEPES buffer (pH 7.2) containing DMPO. Iron and copper were used in the form of amino acid compounds (i.e., glycinates; AAC) and as amino acid inulin complexes (1:9 w/w; AAC/OF). Hydrogen peroxide was added 90 seconds prior to measurement.
The spin trapping reagent—5,5-dimethylpyrroline-N-oxide (DMPO) was used for monitoring hydroxyl radical.
The relative signal amplitudes for DMPO/hydroxyl radical adduct, which can be correlated to the concentration of hydroxyl radical present in the solution, was measured (Table 3).

[4] = Mineral solubility at conditions close to physiological; conditions: one hour at pH 1-1.2, then one hour at pH 7-7.2; supernatant after centrifugation
Procedure: Two forms of zinc, copper, and iron were tested for solubility at conditions close to physiological. […] Samples, in an amount equivalent to 20 tablets, were suspended in 20 mL of water. The pH was adjusted to 1-1.2 and maintained for one hour, simulating a gastric environment. After the first hour, the pH was adjusted to 7-7.2 and maintained for another hour, simulating an intestinal environment. The product was then centrifuged and the supernatant taken for analysis.

Molecule | relative amplitude of the ascorbyl radical signal ([2]; time 1.5 min) | relative amplitude of the ascorbyl radical signal ([2]; time 3.5 min) | relative amplitude of the ascorbyl radical signal ([2]; time 5.5 min) | relative amplitude of the ascorbyl radical signal ([2]; time 10.0 min) | relative amplitude of the ascorbyl radical signal ([2]; time 14.0 min) | relative amplitude of the ascorbyl radical signal ([2]; time 20.0 min) | relative amplitude of the ascorbyl radical signal ([2]; time 28.0 min) | relative signal amplitude for DMPO/hydroxyl radical adduct [3] | further results
gluconate |  |  |  |  |  |  |  |  | EPR signal of the Trolox free radical, reduction compared to CuSO4 [1]: about 15%
O=S(=O)([O-])[O-].[Fe+2] [FeSO4, iron(II) sulfate] | 100% | 76% | 64% | 24% | 14% | 10% | 5% |  | 
NCC(=O)[O-].NCC(=O)[O-].[Fe+2] [FeAAC, iron(II) bis-glycinate] | 100% | 74% | 65% | 47% | 33% | 19% | 19% | 100% | stabilization (lifetime) of the ascorbyl radical ([2]; compared with the iron sulfate): longer period of time
[O-2].[Zn+2] [Zinc Inorganic Form, zinc oxide] |  |  |  |  |  |  |  |  | percent of solubilized mineral [4]: 1.2%
NCC(=O)[O-].NCC(=O)[O-].[Cu+2] [Cu AAC] |  |  |  |  |  |  |  | 100% | 

Source: patent US8697158B2, “Mineral amino acid polysaccharide complex” (Melaleuca, Inc., priority 2008, dated 2014)
